For one data set, the target named is T1, FSHR (Homo sapiens, UniProt P23945).
T1 construct: expressed in transfected cells; host or cells: CHO (Cho-FSHR-LUC-1-1-43)
T1 sequence (P23945 18-695): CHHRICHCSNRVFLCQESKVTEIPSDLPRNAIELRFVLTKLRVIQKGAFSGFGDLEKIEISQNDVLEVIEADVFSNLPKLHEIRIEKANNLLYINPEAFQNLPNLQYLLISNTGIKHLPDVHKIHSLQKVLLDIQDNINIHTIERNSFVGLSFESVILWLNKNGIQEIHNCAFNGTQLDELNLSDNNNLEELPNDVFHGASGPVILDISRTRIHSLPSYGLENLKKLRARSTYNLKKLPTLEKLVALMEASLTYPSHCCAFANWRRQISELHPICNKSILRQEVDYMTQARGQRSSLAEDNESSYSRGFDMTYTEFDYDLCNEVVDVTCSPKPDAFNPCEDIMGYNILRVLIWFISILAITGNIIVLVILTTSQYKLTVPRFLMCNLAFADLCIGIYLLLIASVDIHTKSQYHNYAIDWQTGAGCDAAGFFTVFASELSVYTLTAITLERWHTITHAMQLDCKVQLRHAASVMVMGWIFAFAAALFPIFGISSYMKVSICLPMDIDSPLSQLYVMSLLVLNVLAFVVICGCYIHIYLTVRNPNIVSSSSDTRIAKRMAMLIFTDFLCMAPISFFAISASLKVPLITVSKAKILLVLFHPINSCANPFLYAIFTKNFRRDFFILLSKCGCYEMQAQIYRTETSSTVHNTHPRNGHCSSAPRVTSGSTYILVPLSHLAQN
Put plainly: EC50 of cyclic AMP production in CHO FSHR cells + EC20 FSH (HTRF). Format: cell-based. To be noted: Cho-FSHR-LUC-1-1-43 cells; for Emax: 1 h, read-out: EC50 of cAMP production (% effect); for Emax / EC50 of cAMP production (% effect): + EC20 FSH, % effect in brackets; for EC50: + EC20 FSH (0.265 pM), 200 μM IBMX, 1 h at 37° C., read-out: EC50 of cAMP production. As to the method: EC50 of Cyclic AMP Production in CHO FSHR Cells+EC20 FSH
2500 Cho-FSHR-LUC-1-1-43 cells were plated per well in 5 μL of phenol red free DMEM/F12+1% FBS. Cells were plated in 384 well, solid white low volume plates (Greiner 784075) by Multidrop. Cells were assayed by adding […] of 2×EC20 FSH/IBMX in DMEM/F12+0.1% BSA) by Multidrop to 2 μL of test compound stamped in 384 well plates (compounds are diluted 1:50). The final FSH concentration was 0.265 pM, and the final IBMX concentration was 200 μM. The compound plate map was as follows: Column 1: 2 μL of DMSO; Column 2: 2 μL of DMSO; Columns 3-12 and 13-24: 2 μL of test compound, diluted 1:4 in 100% DMSO, or 2 μL of FSH, diluted 1:4 in DMEM/F12+0.1% BSA. The starting concentration for FSH was 50 nM (final concentration was 0.5 nM). Furthermore, Column 23 contained 2 μL of EC100 FSH reference (100×) (diluted in DMEM/F12+0.1% BSA) at a final concentration of 0.5 nM, and Column 24 contained 2 μL of 1 mM AS707664/2 reference compound 2. 5 μL of compound+EC20 FSH mixture were transferred to cell plates (1:2 dilution into 5 μL of cell media) The plates were incubated at 37° C. for 1 h. 10 μL of mixed HTRF (CisBio #62AM4PEC) reagents were added per well and incubated at room temperature for 1 h. The plates were read on Envision using the cAMP HTRF—low volume 384 well protocol. The readout was the calculated fluorescence ratio (665 nm/620 nm).

A short description of data set [1]: Intrinsic clearance (Clint) in human liver microsomes. Format: in vitro ADME. To be noted: 0.5 mg/mL protein, NADPH, up to 30 min, first value of human/rat; for microsomal CLint at 0.8 μM: human, liver microsomes, pH 7.4, human liver microsomes; for Clint (human): human liver microsomes. As to the method: (§1) Intrinsic Clearance (Clint) Assay Protocol:
(§2) A Tecan Genesis workstation (RSP 150/8) was used for to perform the microsomal incubations. Analysis was carried out using a Waters ACQUITY UPLC system coupled to an ABSciex API3000 mass spectrometer. Data analysis was performed using Assay Explorer (Symyx).
(§3) 0.1 M potassium phosphate buffer pH 7.4 containing 1 mM MgCl2 15 mM NADPH in phosphate buffer 4.4 mg protein/mL liver microsomes in phosphate buffer acetonitrile 20% DMSO in water
(§4) Each experiment consists of 12 test and 2 reference compounds. The reference compounds are incubated as a cocktail. Dilution of test compounds was done in 2 steps from a 10 mM DMSO stock solution. First 4 μL stock solution was added to 196 μL of 20% DMSO in potassium phosphate buffer pH 7.4. In a second step 10 μL of the first dilution were added to […] potassium phosphate buffer and 100 μL internal standard solution to a final concentration of 0.8 μM. 100 μL of the final compound dilution were aliquoted into a 96 deep well plate. 12.5 μL liver microsomes were added to each well (0.5 mg/mL final protein concentration) and the samples preincubated for 5 min at 37° C. and 800 rpm agitation.
(§5) After the preincubation, 250 μL cold acetonitrile were added to the 0 min samples to prevent a reaction. Following this, 12.5 μL NADPH solution were added to all wells to start the incubation, with the exception of the 0 min and 30 min controls without cofactor, where the NADPH was substituted for phosphate buffer.
(§6) The incubations were stopped after 5, 10, 20 and 30 min by adding 250 μL cold acetonitrile to the individual wells.
(§7) The quenched samples were then centrifuged at 4000 g for 1 h at 4° C. 100 μL of the supernatant were transferred into 96 well plates for analysis.
(§8) The metabolic stability of each compound was determined by measurement of the change in LC-MS/MS peak area over time. Assay Explorer software was used to automatically calculate the slope k of the decline. The intrinsic clearance (Clint) of each compound was then calculated according to the formula:
(§9) Clint (μL/min/mg protein)=k1000/protein concentration.
A general note: Microsomes from liver hold many membrane-bound enzymes, among them those of drug oxidation.

A short description of data set [2]: Intrinsic clearance (Clint) in rat liver microsomes. It is filed as in vitro ADME. To be noted: 0.5 mg/mL protein, NADPH, up to 30 min, second value of human/rat; for microsomal CLint at 0.8 μM: rat, liver microsomes, pH 7.4, rat liver microsomes; for Clint (rat): rat liver microsomes. As to the method: as §1, §2, §3, §4, §5, §6, §7, §8, §9

Take `[2H]C([2H])(NC(=O)C[C@H]1S[C@@H](c2ccc(C#Cc3ccccc3)cc2)N(c2cccc(C(N)=O)c2)C1=O)C([2H])([2H])c1ccc(OC)c(OC)c1` [Compound 2, 3-((2S,5R)-4-oxo-5-(2-oxo-2-((1,1,2,2-d4-2-(3,4-dimethoxyphenyl)ethyl)amino)ethyl)-2-(4-(phenylethynyl)phenyl)thiazolidin-3-yl)benzamide]: at FSHR, the Emax came to 97% and the EC50 (usually the concentration that produces a half-maximal response) was 1.9 nM. For the same molecule, in data set [1], the microsomal CLint (in general, the rate of metabolic loss divided by the concentration) at 0.8 μM is 106 µL/min/mg. Besides, in data set [2], the microsomal CLint at 0.8 μM was 24 µL/min/mg.
As for “3-((2S,5R)-4-oxo-5-(2-oxo-2-((2-(3,4-dimethoxyphenyl-d6l)ethyl)amino)ethyl)-2-(4-(phenylethynyl)phenyl)thiazolidin-3-yl)benzamide [Compound 7]”, at FSHR, the EC50 turned out to be 0.5 nM and the “EC50 of cAMP production (% effect)” value is reported as “(99) %”. In addition, the “Clint (human)” value in data set [1] came out at 184 μL/min/mg protein. In addition, in data set [2], the “Clint (rat)” value is 44 μL/min/mg protein.
As for `[2H]c1c([2H])c([2H])c(C#Cc2c([2H])c([2H])c([C@H]3N(c4cccc(C(N)=O)c4)C(=O)[C@@H](CC(=O)NC([2H])([2H])C([2H])([2H])c4ccc(OC([2H])([2H])[2H])c(OCC)c4)[S@@+]3[O-])c([2H])c2[2H])c([2H])c1[2H]` (single isomer, unassigned) [Compound 20], at FSHR, the Emax came to 103% and the EC50 worked out at 25 nM. Also, the microsomal CLint at 0.8 μM in data set [1] turned out to be 35 µL/min/mg. In addition, the microsomal CLint at 0.8 μM in data set [2] came to 18 µL/min/mg.
The matching figures for `[2H]C([2H])(NC(=O)C[C@H]1S[C@@H](c2ccc(C#Cc3ccccc3)cc2)N(c2cccc(C(N)=O)c2)C1=O)C([2H])([2H])c1ccc(O)c(OC)c1` (single isomer, unassigned) [Compound 1]: 99%, 0.87 nM, 67 µL/min/mg and 31 µL/min/mg.
The matching figures for `[2H]C([2H])([2H])Oc1ccc(CCNC(=O)C[C@H]2S[C@@H](c3ccc(C#Cc4ccccc4)cc3)N(c3cccc(C(N)=O)c3)C2=O)cc1OCC` (single isomer, unassigned) [Compound 6]: 96%, 0.7 nM, 208 µL/min/mg and 56 µL/min/mg.
The matching figures for `[2H]C([2H])([2H])Oc1ccc(C([2H])([2H])C([2H])([2H])NC(=O)C[C@H]2S[C@@H](c3ccc(C#Cc4ccccc4)cc3)N(c3cccc(C(N)=O)c3)C2=O)cc1OCC` (single isomer, unassigned) [Compound 5]: 99%, 0.8 nM, 168 µL/min/mg and 45 µL/min/mg.
For the molecule “3-((2S,5R)-5-(2-((3-ethoxy-4-methoxyphenethyl)amino)-2-oxoethyl)-4-oxo-2-(4-((phenyl-d5)ethynyl)phenyl)thiazolidin-3-yl)benzamide [Compound 8]”, at FSHR, the half-maximal effective concentration (EC50) is 1.7 nM and the “EC50 of cAMP production (% effect)” value is reported as “(99) %”. For the same molecule, the “Clint (human)” value in data set [1] was 188 μL/min/mg protein. The “Clint (rat)” value in data set [2] is on record as 54 μL/min/mg protein.
Consider `[2H]C([2H])(NC(=O)C[C@H]1S[C@@H](c2ccc(C#Cc3ccccc3)cc2)N(c2cccc(C(N)=O)c2)C1=O)C([2H])([2H])c1ccc(OC)c(OCC)c1` (single isomer, unassigned) [Compound 14], for which the 50% effective concentration (EC50) at FSHR was determined as 2 nM. Further, the “EC50 of cAMP production (% effect)” value on FSHR (60 min) is listed as “(99) %”. The “Clint (human)” value in data set [1] is on record as 492 μL/min/mg protein. Moreover, in data set [2], the “Clint (rat)” value was determined as 95 μL/min/mg protein.
